In ChEMBL document CHEMBL1134839, “Methylene-gem-difluorocyclopropane analogues of nucleosides: synthesis, cyclopropene-methylenecyclopropane rearrangement, and biological activity” (2001):

Key:
[1] = The compound was tested for antitumor activity against mouse tumor M17/Adr cells; format: functional
[2] = The compound was tested for antitumor activity against L1210 cells; format: functional, Mus musculus
[3] = The compound was tested for antitumor activity against human tumor H15 cells; format: functional
[4] = The compound was tested for antitumor activity against normal cells (fibroblast); format: functional, Homo sapiens
[5] = The compound was tested for antitumor activity against human colon tumor H116 cells; format: functional
[6] = system: MC-38; assay: The compound was tested for antitumor activity against mouse tumor C38 cells; format: functional

Nc1ncnc2c1ncn2/C=C1\C(CO)C1(F)F (configuration not stated)
Activity [1]: 370 | Activity [2]: 420 | Activity [3]: 300 | Activity [4]: 130 | Activity [5]: 200 | Activity [6]: 470

Nc1ncnc2c1ncn2/C=C1/C(CO)C1(F)F (configuration not stated)
Activity [1]: 590 | Activity [2]: 660 | Activity [3]: 550 | Activity [4]: 500 | Activity [5]: 550 | Activity [6]: 580

Nc1ncnc2c1ncn2/C=C1/CC1CO (configuration not stated)
Activity [1]: 460 | Activity [2]: 570 | Activity [4]: 130 | Activity [5]: 160 | Activity [6]: 600
